Data on 17 molecules can be found in patent US20230116602A1, “MCL1 INHIBITORS AND USES THEREOF” (California Institute of Technology, priority 2019, published 2023).

Broadly, the Kd is a measure of binding affinity in units of concentration. Usually IC50 stands for the point on the concentration scale where inhibition reaches its midpoint.

Some results are limits rather than exact numbers.

For assay [1], the target named is MCL1 (Homo sapiens, UniProt Q07820). Description: MCL1 affinity assay (competition binding, qPCR readout). To be noted: recombinant MCL1, 11-point 3-fold dilution series. How it is done:
Recombinant MCL1, BCL2 and BCXL proteins were prepared in either an E. coli host derived from the BL21 strain or in HEK-293 cells. The recombinant proteins were subsequently tagged with DNA for qPCR detection. Streptavidin-coated magnetic beads were treated for 30 minutes at room temperature with the respective biotinylated peptide ligands for each recombinant protein to generate affinity resins for the assays. The liganded beads were blocked with excess biotin and washed with blocking buffer (SeaBlock (Pierce), 1% BSA, 0.05% Tween 20, 1 mM DTT) to remove unbound ligand and to reduce nonspecific binding. Binding reactions were assembled by combining recombinant protein, liganded affinity beads, and test compounds in 1× binding buffer (20% SeaBlock, 0.17×PBS, 0.05% Tween 20, 6 mM DTT). Test compounds were prepared as 111X stocks in 100% DMSO. The compounds were then diluted directly into the assays such that the final concentration of DMSO was 0.9%. The assay plates were incubated at room temperature with shaking for 1 hour and the affinity beads were washed with wash buffer (1×PBS, 0.05% Tween 20). The beads were then re-suspended in elution buffer (1×PBS, 0.05% Tween 20, 0.5 μM non-biotinylated affinity ligand) and incubated at room temperature with shaking for 30 minutes. The recombinant protein concentration in the eluates was measured by qPCR. Kds were determined using an 11-point 3-fold compound dilution series with three DMSO control points.

Assay [2] relates to drug-resistant cell lines of Table 3. The assay can be described thus: Cell line growth retardation assay, resistant cohort. It is filed as cell-based, Human. To be noted: Homo sapiens, 144 h; arithmetic mean of IC50s over the resistant cohort of Table 3, 6 days growth; read-out: AvgRes IC50. How it is done: (§1) Cells were seeded at densities of 1,000-5,000 cells per well in 48-well tissue culture plates. After a 24 h rest period, cells were treated with compound at 10 μM, 1 μM, […], 0.08 μM, 0.016 μM, and 0.0032 μM. A group of cells were treated with the vehicle in which the compound was prepared and served as a control. Prior to treatment, cells were counted and this count was used as a baseline for the calculation of growth inhibition. The cells were grown in the presence of compounds for 6 days and were counted on day 6. All cell counting was performed using a Synentec Cellavista plate imager. Growth inhibition was calculated as a ratio of cell population doublings in the presence of compound versus the absence of compound. […] IC50 values for each compound were calculated by fitting curves to data points from each dose-response assay using the Proc NLIN function in SAS for Windows version 9.2 (SAS Institute, Inc.).
(§2) Human cancer cell lines were grouped as “sensitive” or “resistant” to MCL1 inhibition based on whether their growth was retarded by AMG-176 (i.e., (1′S,11R,12S,14E,16S,16aR,18aR)-6′-Chloro-3′,4′,12,13,16,16a,17,18,18a,19-decahydro-16-methoxy-11,12-dimethyl-,Spiro[5,7-etheno-1H,11H-cyclobut[i][1,4]oxazepino[3,4-f][1,2,7]thiadiazacyclohexadecine-2(3H),1′(2′H)-naphthalen]-8(9H)-one 10,10-dioxide) or MIK665 (i.e., (R)-2-((5-(3-chloro-2-methyl-4-(2-(4-methylpiperazin-1-yl)ethoxy)phenyl)-6-(4-fluorophenyl)thieno[2,3-d]pyrimidin-4-yl)oxy)-3-(2-((2-(2-methoxyphenyl)pyrimidin-4-yl)methoxy)phenyl)propanoic acid) (data not shown; see Table 3). These sensitive and resistant cohorts were interrogated for response to each compound, and IC50S were calculated for each cell line using the same technique described above. Average IC50S for the sensitive (“AvgSen IC50”) and resistant (“AvgRes IC50”) cohorts were calculated as arithmetic means of the group, and fold differences (“Fold Diff”) between the resistant and sensitive cohorts were calculated by diving the average IC50 for the resistant cohort by the average IC50 for the sensitive cohort. “A” represents an IC50 of 1 μM or less, “B” represents an IC50 of greater than 1 μM to 5 μM, “C” represents an IC50 of greater than 5 μM, “+” represents a fold difference of 10 or more, and “−” represents a fold difference less than 10.

Assay [3] has as its system drug-sensitive cell lines of Table 3. Description: Cell line growth retardation assay, sensitive cohort. It is filed as cell-based, Human. As to conditions: for IC50: Homo sapiens, 144 h, arithmetic mean of IC50s over the sensitive cohort of Table 3, 6 days growth, read-out: AvgSen IC50; for Fold Diff: average IC50 of resistant cohort divided by average IC50 of sensitive cohort. Here is the method: as §1, §2

Sequence of MCL1 (Q07820 whole entry): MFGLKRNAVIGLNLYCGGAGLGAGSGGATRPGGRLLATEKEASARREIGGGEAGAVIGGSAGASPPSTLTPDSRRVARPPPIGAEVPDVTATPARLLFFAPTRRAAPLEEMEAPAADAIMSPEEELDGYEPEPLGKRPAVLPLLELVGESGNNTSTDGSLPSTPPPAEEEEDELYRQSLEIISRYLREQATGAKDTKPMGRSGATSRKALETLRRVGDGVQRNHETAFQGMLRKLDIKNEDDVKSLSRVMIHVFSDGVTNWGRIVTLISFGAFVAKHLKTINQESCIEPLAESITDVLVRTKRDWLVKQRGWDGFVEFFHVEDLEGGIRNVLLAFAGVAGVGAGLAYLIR

For `COc1ccccc1-c1nccc(COc2ccccc2C[C@@H](Oc2nsc3cnc(-c4ccc(F)cc4)c(-c4ccc(OCCC5CCN(C)CC5)c(Cl)c4C)c23)C(=O)O)n1` (atropisomer, axis not shown) [Compound 81], the Kd in assay [1] was ≤ 0.1 µM. The IC50 in assay [2] was > 5 µM; in assay [3], 1 to 5 µM. Further, the “Fold Diff” value in assay [3] was “− (“−” represents a fold difference less than 10)”.
The like results for `COc1ccccc1-c1nccc(COc2ccccc2C[C@@H](Oc2nsc3cnc(-c4cc(F)c(F)c(F)c4)c(-c4ccc(OCCN5CCN(C)CC5)c(Cl)c4C)c23)C(=O)O)n1` (atropisomer, axis not shown) [Compound 84] were, in that order, ≤ 0.1 µM, > 5 µM, ≤ 1 µM and “+ (“+” represents a fold difference of 10 or more)”.
Turning to `COc1ccccc1-c1nccc(COc2ccccc2C[C@@H](Oc2nsc3cnc(-c4ccc(F)c(F)c4)c(-c4ccc(OCCN5CCN(C)CC5)c(Cl)c4C)c23)C(=O)O)n1` (atropisomer, axis not shown) [Compound 85], the Kd in assay [1] is ≤ 0.1 µM. Moreover, the IC50 in assay [2] is > 5 µM. Besides, in assay [3], the IC50 was ≤ 1 µM and the “Fold Diff” value was “+ (“+” represents a fold difference of 10 or more)”.
The like results for `COc1ccccc1-c1nccc(COc2ccccc2C[C@@H](Oc2nsc3cnc(-c4ccc(F)cc4C)c(-c4ccc(OCCN5CCN(C)CC5)c(Cl)c4C)c23)C(=O)O)n1` (atropisomer, axis not shown) [Compound 86] were, in that order, 0.501 to 1.5 µM, > 5 µM, 1 to 5 µM and “− (“−” represents a fold difference less than 10)”.
The like results for `CCOc1cccc(-c2ncc3snc(O[C@H](Cc4ccccc4OCc4ccnc(-c5ccccc5OC)n4)C(=O)O)c3c2-c2ccc(OCCN3CCN(C)CC3)c(Cl)c2C)c1` (atropisomer, axis not shown) [Compound 87] were, in that order, ≤ 0.1 µM, > 5 µM, ≤ 1 µM and “+ (“+” represents a fold difference of 10 or more)”.
In the same order, the values of `COc1ccccc1-c1nccc(COc2ccccc2C[C@@H](Oc2nsc3cnc(-c4ccc(F)c(Cl)c4)c(-c4ccc(OCCN5CCN(C)CC5)c(Cl)c4C)c23)C(=O)O)n1` (atropisomer, axis not shown) [Compound 88] are ≤ 0.1 µM, > 5 µM, ≤ 1 µM and “+ (“+” represents a fold difference of 10 or more)”.
Take `COc1ccccc1-c1nccc(COc2ccccc2C[C@@H](Oc2nsc3cnc(-c4cnn(CC5CCC5)c4)c(-c4ccc(OCCN5CCN(C)CC5)c(Cl)c4C)c23)C(=O)O)n1` (atropisomer, axis not shown) [Compound 90]: the Kd in assay [1] was 0.101 to 0.5 µM. Also, in assay [2], the IC50 was > 5 µM. In assay [3], the IC50 fell in the range of 1 to 5 µM and the “Fold Diff” value is reported as “− (“−” represents a fold difference less than 10)”.
The like results for `Cc1c(-c2c(N3CC4(COC4)C3)ncc3snc(O[C@H](Cc4ccccc4OCc4ccnn4CC(F)(F)F)C(=O)O)c23)ccc(OCCN2CCN(C)CC2)c1Cl` (atropisomer, axis not shown) [Compound 91] were, in that order, > 1.5 µM, > 5 µM, > 5 µM and “− (“−” represents a fold difference less than 10)”.
Consider `COc1ccccc1C[C@@H](Oc1nsc2cnc(-c3cccc(F)c3)c(-c3ccc(OCCN4CCN(C)CC4)c(Cl)c3C)c12)C(=O)O` (atropisomer, axis not shown) [Compound 93], for which the Kd in assay [1] lay within 0.101 to 0.5 µM. Further, the IC50 in assay [2] is > 5 µM. Besides, in assay [3], the IC50 lay within 1 to 5 µM and the “Fold Diff” value is given as “− (“−” represents a fold difference less than 10)”.
Turning to `COc1ccccc1-c1nccc(COc2ccccc2C[C@@H](Oc2nsc3cnc(-c4cccc(F)c4)c(-c4ccc(OCCC5CCN(C)CC5)c(Cl)c4C)c23)C(=O)O)n1` (atropisomer, axis not shown) [Compound 102], the Kd in assay [1] was ≤ 0.1 µM. For the same molecule, the IC50 in assay [2] is > 5 µM; in assay [3], 1 to 5 µM. In addition, in assay [3], the “Fold Diff” value is listed as “− (“−” represents a fold difference less than 10)”.
In the case of `Cc1c(-c2c(C3CCC3)ncc3snc(O[C@H](Cc4ccccc4OCc4ccnc(C5CCC5)n4)C(=O)O)c23)ccc(OCCN2CCN(C)CC2)c1Cl` (atropisomer, axis not shown) [Compound 104], the Kd in assay [1] is 0.101 to 0.5 µM. The IC50 in assay [2] was > 5 µM; in assay [3] it was 1 to 5 µM. In assay [3], the “Fold Diff” value is recorded as “− (“−” represents a fold difference less than 10)”.
The like results for `COc1ccccc1-c1nccc(COc2ccccc2C[C@@H](Oc2nsc3cnc(C4CCC4)c(-c4ccc(OC)c(Cl)c4C)c23)C(=O)OCc2oc(=O)oc2C)n1` (atropisomer, axis not shown) [Compound 106] were, in that order, 0.101 to 0.5 µM, > 5 µM, 1 to 5 µM and “− (“−” represents a fold difference less than 10)”.
For `COc1ccccc1-c1nccc(COc2ccccc2C[C@@H](Oc2nsc3cnc(C4CCC4)c(-c4ccc(OC)c(Cl)c4C)c23)C(=O)O)n1` (atropisomer, axis not shown) [Compound 107], the Kd in assay [1] is ≤ 0.1 µM. Besides, the IC50 in assay [2] is > 5 µM. Also, in assay [3], the IC50 was > 5 µM and the “Fold Diff” value is listed as “− (“−” represents a fold difference less than 10)”.
For `COc1ccccc1-c1nccc(COc2ccccc2C[C@@H](Oc2nsc3cnc(C4CCC4)c(-c4ccc(OCCN5CCOCC5)c(Cl)c4C)c23)C(=O)O)n1` (atropisomer, axis not shown) [Compound 108], in assay [1], the Kd is ≤ 0.1 µM. Moreover, the IC50 in assay [2] is > 5 µM; in assay [3] it was 1 to 5 µM. Besides, in assay [3], the “Fold Diff” value is on record as “− (“−” represents a fold difference less than 10)”.
In the same order, the values of `Cc1c(-c2c(C3CCC3)ncc3snc(O[C@H](Cc4ccccc4OCc4ccnc(C5CC5)n4)C(=O)O)c23)ccc(OCCN2CCN(C)CC2)c1Cl` (atropisomer, axis not shown) [Compound 109] are 0.101 to 0.5 µM, > 5 µM, 1 to 5 µM and “− (“−” represents a fold difference less than 10)”.
The like results for `Cc1c(-c2c(C3CCC3)ncc3snc(O[C@H](Cc4ccccc4OCc4ccnc(C5CCC(F)(F)CC5)n4)C(=O)O)c23)ccc(OCCN2CCN(C)CC2)c1Cl` (atropisomer, axis not shown) [Compound 110] were, in that order, ≤ 0.1 µM, > 5 µM, ≤ 1 µM and “+ (“+” represents a fold difference of 10 or more)”.
The like results for `Cc1c(-c2c(C3CCC3)ncc3snc(O[C@H](Cc4ccccc4OCc4ccnc(C5CCOCC5)n4)C(=O)O)c23)ccc(OCCN2CCN(C)CC2)c1Cl` (atropisomer, axis not shown) [Compound 111] were, in that order, ≤ 0.1 µM, > 5 µM, ≤ 1 µM and “+ (“+” represents a fold difference of 10 or more)”.
